From paper PMC3431920 (Molecular bioSystems, 2012)

Experiments:
MCF-7 cells = assay: MTS cell viability assay, 24h treatment; assay type: cell-based; conditions: result in words
Water solubility = assay type: physicochemical; conditions: result in words; method not given

In the case of N=C(N)NCCC[C@H](NC(=O)[C@H](CCCNC(=N)N)NC(=O)[C@H](CCCNC(=N)N)NC(=O)[C@H](CCCNC(=N)N)NC(=O)[C@H](CCCNC(=N)N)NC(=O)[C@H](CCCNC(=N)N)NC(=O)[C@H](CCCNC(=N)N)NC(=O)[C@H](CCCNC(=N)N)NC(=O)c1ccc2c(c1)C(=O)OC21c2ccc(O)cc2Oc2cc(O)ccc21)C(N)=O [Construct 1], the “cytotoxicity (in words)” value (MCF-7 cells) is reported as “minor cytotoxicity”.

In the case of C[C@@H](c1ccccc1)N(CC(N)=O)C(=O)CN(C(=O)CN(CCCCN)C(=O)CN(C(=O)CN(C(=O)CN(CCCCN)C(=O)CN(C(=O)CN(C(=O)CN(CCCCN)C(=O)CN(C(=O)CN(C(=O)CN(CCCCN)C(=O)c1ccc2c(c1)C(=O)OC21c2ccc(O)cc2Oc2cc(O)ccc21)[C@@H](C)c1ccccc1)[C@@H](C)c1ccccc1)[C@@H](C)c1ccccc1)[C@@H](C)c1ccccc1)[C@@H](C)c1ccccc1)[C@@H](C)c1ccccc1)[C@@H](C)c1ccccc1 [Construct 4], the water solubility (Water solubility) is reported as “good water solubility”.
